Data on 29 molecules can be found in patent US9566254B2, “Inhibitors and methods of inhibiting bacterial and viral pathogens” (priority 2010, dated 2017).

What all share (experiment): microbe, parasite or virus in culture
Common to all, as to type: cell-based

In one assay the test system is vaccinia virus. The conditions noted are these: Orthopoxvirus vaccinia, read-out: Avg Activity (VV).
The next assay has as its system La Crosse virus (LACV). The conditions noted are these: La Crosse virus, Vero, read-out: Avg Activity (LACV).
The test system of a further assay is Chlamydophila caviae. The following applies: Chlamydia caviae, Vero, read-out: Avg Activity (C. Caviae).

pEC50: −log10 of the molar value. Counter-ions that a name gives are not always drawn.

As to `CC(C)(C)c1ccc(C(=O)NC(=S)Nc2ccc(NC(=O)c3ccccc3Cl)c(O)c2)cc1` [Compound 2, N-[4-[(4-tert-butylbenzoyl)-carbamothioylamino]-2-hydroxy-phenyl]-2-chloro-benzamide], the pEC50 in the assay with vaccinia virus, in the assay with La Crosse virus (LACV) and with Chlamydophila caviae was more than 6.00 each time.
With `COc1cc(NC(=S)NC(=O)c2ccc(C(C)(C)C)cc2)ccc1N(C)c1ccccc1Cl` [Compound 3, 4-tert-butyl-N-[[4-[(2-chlorophenyl)-methylamino]-3-methoxy-phenyl]-carbamothioyl]-benzamide], the pEC50 in the assay with vaccinia virus, with La Crosse virus (LACV) and in the assay on Chlamydophila caviae was more than 6.00 each time.
Take `CC(C)(C)c1ccc(C(=O)NC(=S)Nc2ccc(N)cc2Cl)cc1` [Compound 4, N-[(4-amino-2-chloro-phenyl)carbamothioyl]-4-tert-butyl-benzamide hydrochloride]: the pEC50 in the assay with vaccinia virus, in the assay on La Crosse virus (LACV) and with Chlamydophila caviae was more than 6.00 each time.
Take `CNc1ccc(NC(=S)NC(=O)c2ccc(C(C)(C)C)cc2)c(Cl)c1` [Compound 5, 4-tert-butyl-N-[[2-chloro-4-(methylamino)phenyl]-carbamothioyl]benzamide hydrochloride]: the pEC50 in the assay with vaccinia virus, in the assay with La Crosse virus (LACV) and with Chlamydophila caviae was more than 6.00 throughout.
As for `CC(C)(C)c1ccc(C(=O)NC(=S)Nc2ccc(NC(=O)c3ccccc3)cc2Cl)cc1` [Compound 7, N-[(4-benzamido-2-chloro-phenyl)carbamothioyl]-4-tert-butyl-benzamide], the pEC50 with vaccinia virus, with La Crosse virus (LACV) and in the assay on Chlamydophila caviae was more than 6.00 throughout.
As for `COc1cc(NC(=S)NC(=O)c2ccc(C(C)(C)C)cc2)ccc1NC(=S)c1ccccc1Cl` [Compound 8, 4-tert-butyl-N-[[4-[(2-chlorobenzene-carbothioyl)amino]-3-methoxy-phenyl]-carbamothioyl]benzamide], the pEC50 in the assay with vaccinia virus, in the assay with La Crosse virus (LACV) and in the assay with Chlamydophila caviae was more than 6.00 throughout.
For the molecule `CCS/C(=N\C(=O)c1ccc(C(C)(C)C)cc1)Nc1cc(C)ccc1Cl` [Compound 9, (NZ)-4-tert-butyl-N-[(2-chloro-5-methyl-anilino)-ethylsulfanyl-methylene]benzamide], the pEC50 with vaccinia virus, in the assay with La Crosse virus (LACV) and in the assay with Chlamydophila caviae was more than 6.00 in each case.
On to `CCS/C(=N\C(=O)c1ccc(C(C)(C)C)cc1)Nc1ccc(NC(=O)c2ccccc2Cl)c(OC)c1` [Compound 10, N-[4-[[(Z)—N-(4-tert-butylbenzoyl)-C-ethylsulfanyl-carbonimidoyl]amino]-2-methoxy-phenyl]-2-chloro-benzamide], for which the pEC50 in the assay on vaccinia virus is more than 6.00; with La Crosse virus (LACV), more than 6.00; in the assay on Chlamydophila caviae, 5.00 to 6.00.
As to `COc1cc(NC(=S)NC(=O)c2ccc(C(C)(C)C)cc2)ccc1NC(=O)c1ccc(CN)cc1` [Compound 12, hydrochloride], the results for the pEC50 in the assay with vaccinia virus, in the assay on La Crosse virus (LACV) and in the assay on Chlamydophila caviae were more than 6.00, less than 4.60 and more than 6.00, respectively.
As to `Cc1cccc(Cl)c1NC(=S)NC(=O)c1ccc(C(C)(C)C)cc1` [Compound 13, 4-tert-butyl-N-[(2-chloro-6-methyl-phenyl)-carbamothioyl]benzamide], the pEC50 in the assay with vaccinia virus is 5.00 to 6.00; in the assay with La Crosse virus (LACV), more than 6.00; in the assay with Chlamydophila caviae, more than 6.00.
`CCS/C(=N\C(=O)c1ccc(C(C)(C)C)cc1)Nc1ccccc1Cl` [Compound 14, (NZ)-4-tert-butyl-N-[(2-chloroanilino)-ethylsulfanyl-methylene]benzamide]: the pEC50 in the assay on vaccinia virus is 5.00 to 6.00; with La Crosse virus (LACV) it was more than 6.00; in the assay with Chlamydophila caviae it was more than 6.00.
For `CC(C)(C)c1ccc(C(=O)NC(=S)Nc2cccc(C(F)(F)F)c2Cl)cc1` [Compound 15, 4-tert-butyl-N-[[2-chloro-3-(trifluoromethyl)phenyl]-carbamothioyl]benzamide], the pEC50 was 5.00 to 6.00 in the assay on vaccinia virus, more than 6.00 in the assay with La Crosse virus (LACV) and more than 6.00 in the assay on Chlamydophila caviae.
For `COc1cc(NC(=S)NC(=O)c2ccc(C(C)(C)C)cc2)ccc1NS(=O)(=O)c1cccc2c(N(C)C)cccc12` [Compound 16, 4-tert-butyl-N-[[4-[[5-(dimethylamino)-1-naphthyl]sulfonylamino]-3-methoxy-phenyl]-carbamothioyl]benzamide], the pEC50 was 5.00 to 6.00 in the assay on vaccinia virus, 5.00 to 6.00 in the assay on La Crosse virus (LACV) and more than 6.00 with Chlamydophila caviae.
`Cc1cccc(NC(=S)NC(=O)c2ccc(C(C)(C)C)cc2)c1Cl` [Compound 19, 4-tert-butyl-N-[(2-chloro-3-methyl-phenyl)-carbamothioyl]benzamide]: the pEC50 with vaccinia virus is 5.00 to 6.00; in the assay with La Crosse virus (LACV), 5.00 to 6.00; in the assay with Chlamydophila caviae, more than 6.00.
On to `CN(C)c1ccc(NC(=S)NC(=O)c2ccc(C(C)(C)C)cc2)c(Cl)c1` [Compound 22, 4-tert-butyl-N-[[2-chloro-4-(dimethylamino)phenyl]-carbamothioyl]benzamide hydrochloride], for which the pEC50 was 5.00 to 6.00 in the assay with vaccinia virus, 5.00 to 6.00 with La Crosse virus (LACV) and more than 6.00 with Chlamydophila caviae.
Regarding `COc1cc(NC(=S)NC(=N)c2ccc(C(C)(C)C)cc2)ccc1NC(=O)c1ccccc1Cl` [Compound 23, N-[4-[(4-tert-butylbenzene-carboximidoyl)-carbamothioylamino]-2-methoxy-phenyl]-2-chloro-benzamide], the figures for the pEC50 in the assay on vaccinia virus, in the assay on La Crosse virus (LACV) and in the assay on Chlamydophila caviae were 5.00 to 6.00, 5.00 to 6.00 and more than 6.00, respectively.
Take `COc1cc(NC(=S)NC(=O)c2ccc(C(C)(C)C)cc2)ccc1NC(=N)c1ccccc1Cl` [Compound 24, 4-tert-butyl-N-[[4-[(2-chlorobenzene-carboximidoyl)amino]-3-methoxy-phenyl]-carbamothioyl]benzamide]: the pEC50 was 5.00 to 6.00 in the assay with vaccinia virus, 5.00 to 6.00 in the assay with La Crosse virus (LACV) and more than 6.00 in the assay on Chlamydophila caviae.
Consider `COc1cc(NC(=S)NC(=O)c2ccc(C(C)(C)C)cc2)ccc1NC(=O)CCCCC1SCC2NC(=O)NC21` (centres unmarked) [Compound 25, 4-tert-butyl-N-[[3-methoxy-4-[5-(2-oxo-1,3,3a,4,6,6a-hexahydrothieno[3,4-d]imidazol-4-yl)-pentanoylamino]phenyl]-carbamothioyl]benzamide], for which the pEC50 was 5.00 to 6.00 in the assay on vaccinia virus, less than 4.60 with La Crosse virus (LACV) and 5.00 to 6.00 in the assay on Chlamydophila caviae.
For the molecule `COc1cc(NC(=S)NC(=O)C2CCCCC2)ccc1NC(=O)c1ccccc1Cl` [Compound 26, 2-chloro-N-[4-(cyclohexanecarbonyl-carbamothioylamino)-2-methoxy-phenyl]benzamide], the pEC50 in the assay on vaccinia virus was 5.00 to 6.00; with La Crosse virus (LACV), less than 4.60; in the assay with Chlamydophila caviae, 4.60 to 5.00.
In the case of `COc1cc(NC(=S)NC(=O)c2ccc(C(C)(C)C)cc2)ccc1NC(=O)c1cccc(CN)c1` [Compound 27, 3-(aminomethyl)-N-[4-[(4-tert-butylbenzoyl)-carbamothioylamino]-2-methoxy-phenyl]benzamide hydrochloride], the pEC50 in the assay with vaccinia virus was 5.00 to 6.00; with La Crosse virus (LACV), less than 4.60; in the assay on Chlamydophila caviae it was more than 6.00.
In the same order, the values of `COc1cc(NC(=S)NC(=O)c2ccc(C(C)(C)C)cc2)ccc1NC(=O)c1ccccc1N` [Compound 28, 2-amino-N-[4-[(4-tert-butylbenzoyl)-carbamothioylamino]-2-methoxy-phenyl]benzamide] are 5.00 to 6.00, less than 4.60 and more than 6.00.
As to `CC(C)(C)c1ccc(C(=O)NC(=S)Nc2cc(OC(F)(F)F)ccc2Cl)cc1` [Compound 29, 4-tert-butyl-N-[[2-chloro-5-(trifluoromethoxy)phenyl]-carbamothioyl]benzamide], the pEC50 was 5.00 to 6.00 in the assay on vaccinia virus and less than 4.60 with La Crosse virus (LACV).
As to `COc1cc(NC(=S)NC(=O)c2ccc(C(C)(C)C)cc2)ccc1NC(=O)c1cccnc1` [Compound 30, N-[4-[(4-tert-butylbenzoyl)-carbamothioylamino]-2-methoxy-phenyl]pyridine-3-carboxamide], the pEC50 with vaccinia virus was 5.00 to 6.00; in the assay with Chlamydophila caviae, more than 6.00.
In the same order, the values of `COc1cc(NC(=S)NC(=O)c2ccc(C(C)(C)C)cc2)ccc1NC(=O)c1ccncc1` [Compound 31, N-[4-[(4-tert-butylbenzoyl)-carbamothioylamino]-2-methoxy-phenyl]pyridine-4-carboxamide] are 5.00 to 6.00 and more than 6.00.
`COc1cc(NC(=S)NC(=O)c2ccc(C(C)(C)C)cc2)ccc1NC(=O)c1ccc(N)cc1` [Compound 32, N-[[4-[(4-aminobenzoyl)amino]-3-methoxy-phenyl]-carbamothioyl]-4-tert-butyl-benzamide hydrochloride]: the pEC50 is 4.60 to 5.00 in the assay on vaccinia virus, 4.60 to 5.00 with La Crosse virus (LACV) and more than 6.00 in the assay on Chlamydophila caviae.
As for `CCNC(=S)Nc1ccc(NC(=O)c2ccccc2Cl)c(OC)c1` [Compound 33, 2-chloro-N-[4-(ethylcarbamo-thioylamino)-2-methoxy-phenyl]benzamide], the pEC50 in the assay with vaccinia virus is 4.60 to 5.00; in the assay with La Crosse virus (LACV), less than 4.60; with Chlamydophila caviae, less than 4.60.
Consider `CCN(C(=S)NC(=O)c1ccc(C(C)(C)C)cc1)c1ccc(NC(=O)c2ccccc2Cl)c(OC)c1` [Compound 34, N-[4-[(4-tert-butylbenzoyl)-carbamothioyl-ethyl-amino]-2-methoxy-phenyl]-2-chloro-benzamide], for which the figures for the pEC50 in the assay with vaccinia virus, in the assay on La Crosse virus (LACV) and in the assay on Chlamydophila caviae were 4.60 to 5.00, less than 4.60 and 5.00 to 6.00, respectively.
In the same order, the values of `COC(=O)CC(=O)Nc1ccc(NC(=S)NC(=O)c2ccc(C(C)(C)C)cc2)cc1OC` [Compound 35, methyl 3-[4-[(4-tert-butylbenzoyl)carbamo-thioylamino]-2-methoxy-anilino]-3-oxo-propanoate] are 4.60 to 5.00, less than 4.60 and 5.00 to 6.00.
For `COc1cc(NC(=S)NC(=O)c2ccc(C(C)(C)C)cc2)ccc1NC(N)=O` [Compound 37, 4-tert-butyl-N-[(3-methoxy-4-ureido-phenyl)carbamothioyl]-benzamide], the results for the pEC50 in the assay on vaccinia virus and in the assay with La Crosse virus (LACV) were less than 4.60 and 5.00 to 6.00, respectively.
